Results published in US12209087B2, “AKT1 modulators” (Alterome Therapeutics, Inc., priority 2022, dated 2025).

Biological target: T1, full length AKT E17K (Homo sapiens, UniProt P31749, E17K)
T1 construct: host or cells: HEK-293 (ATCC CRL-1573)
Assay: NanoBRET Target Engagement (TE) Assay
Assay type: cell-based
Settings: competitive displacement of tracer in cells, read-out: AKT1 E17K IC50
How it was run: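 Compound and tracer incubated 2 h before luminescence at donor 450 nm and acceptor 600 nm, with extracellular signal inhibited. EC50 by sigmoidal variable-slope regression.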

T1 sequence (P31749 whole entry E17K): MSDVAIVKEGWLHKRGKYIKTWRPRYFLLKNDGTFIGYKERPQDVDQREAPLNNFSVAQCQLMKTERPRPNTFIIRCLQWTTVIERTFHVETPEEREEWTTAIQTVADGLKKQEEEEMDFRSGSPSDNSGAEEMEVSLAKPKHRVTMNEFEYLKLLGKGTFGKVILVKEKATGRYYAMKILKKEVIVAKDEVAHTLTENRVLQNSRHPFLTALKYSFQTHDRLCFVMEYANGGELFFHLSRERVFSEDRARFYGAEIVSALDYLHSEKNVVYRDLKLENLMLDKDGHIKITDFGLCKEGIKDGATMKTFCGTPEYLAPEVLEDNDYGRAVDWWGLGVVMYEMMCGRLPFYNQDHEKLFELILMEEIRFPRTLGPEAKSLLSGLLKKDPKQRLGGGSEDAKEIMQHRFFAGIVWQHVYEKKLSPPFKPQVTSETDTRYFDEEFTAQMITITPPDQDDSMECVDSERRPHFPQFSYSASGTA

Row | IC50 [nM] | Compound
1 | 15 to 60 | Cn1cnc(-c2ccc3nc(-c4cccnc4N)n(-c4ccc(CN5CCC(Nc6ccnc(C#N)n6)CC5)cc4)c3n2)n1 [Example 559, 4-((1-(4-(2-(2-Aminopyridin-3-yl)-5-(1-methyl-1H-1,2,4-triazol-3-yl)-3H-imidazo[4,5-b]pyridin-3-yl)benzyl)piperidin-4-yl)amino)pyrimidine-2-carbonitrile]
2 | < 15 | CCOc1ccc(-c2ccc3nc(-c4cccnc4N)n(-c4ccc(CN5CCC(Nc6ccnc(C#N)n6)CC5)cc4)c3n2)nc1 [Example 560, 4-((1-(4-(2-(2-Aminopyridin-3-yl)-5-(5-ethoxypyridin-2-yl)-3H-imidazo[4,5-b]pyridin-3-yl)benzyl)piperidin-4-yl)amino)pyrimidine-2-carbonitrile]
3 | < 15 | N#Cc1nccc(NC2CCN(Cc3ccc(-n4c(-c5cccnc5N)nc5ccc(-c6ccnc(F)c6)nc54)cc3)CC2)n1 [Example 561, 4-((1-(4-(2-(2-Aminopyridin-3-yl)-5-(2-fluoropyridin-4-yl)-3H-imidazo[4,5-b]pyridin-3-yl)benzyl)piperidin-4-yl)amino)pyrimidine-2-carbonitrile]
4 | < 15 | Cn1ncc(-c2ccc3nc(-c4nccnc4N)n(-c4ccc(CN5CCC(Nc6ccnc(C#N)n6)CC5)cc4)c3n2)n1 [Example 562, 4-((1-(4-(2-(3-Aminopyrazin-2-yl)-5-(2-methyl-2H-1,2,3-triazol-4-yl)-3H-imidazo[4,5-b]pyridin-3-yl)benzyl)piperidin-4-yl)amino)pyrimidine-2-carbonitrile]
5 | < 15 | COc1cccnc1-c1ccc2nc(-c3cccnc3N)n(-c3ccc(CN4CCC(Nc5ccnc(C#N)n5)CC4)cc3)c2n1 [Example 563, 4-((1-(4-(2-(2-Aminopyridin-3-yl)-5-(3-methoxypyridin-2-yl)-3H-imidazo[4,5-b]pyridin-3-yl)benzyl)piperidin-4-yl)amino)pyrimidine-2-carbonitrile]
6 | 15 to 60 | Cn1nncc1-c1ccc2nc(-c3cccnc3N)n(-c3ccc(CN4CCC(Nc5ccnc(C#N)n5)CC4)cc3)c2n1 [Example 564, 4-((1-(4-(2-(2-Aminopyridin-3-yl)-5-(1-methyl-1H-1,2,3-triazol-5-yl)-3H-imidazo[4,5-b]pyridin-3-yl)benzyl)piperidin-4-yl)amino)pyrimidine-2-carbonitrile]
7 | < 15 | Cc1cc2nc(-c3cccnc3N)n(-c3ccc(CN4CCC(Nc5ccnc(C#N)n5)CC4)cc3)c2nc1C#N [Example 565, 2-(2-Aminopyridin-3-yl)-3-(4-((4-((2-cyanopyrimidin-4-yl)amino)piperidin-1-yl)methyl)phenyl)-6-methyl-3H-imidazo[4,5-b]pyridine-5-carbonitrile]
8 | 15 to 60 | Cc1nnc(-c2ccc3nc(-c4cccnc4N)n(-c4ccc(CN5CCC(Nc6ccnc(C#N)n6)CC5)cc4)c3n2)o1 [Example 566, 4-((1-(4-(2-(2-Aminopyridin-3-yl)-5-(5-methyl-1,3,4-oxadiazol-2-yl)-3H-imidazo[4,5-b]pyridin-3-yl)benzyl)piperidin-4-yl)amino)pyrimidine-2-carbonitrile]
9 | < 15 | Cn1ncnc1-c1ccc2nc(-c3cccnc3N)n(-c3ccc(CN4CCC(Nc5ccnc(C#N)n5)CC4)cc3)c2n1 [Example 567, 4-((1-(4-(2-(2-Aminopyridin-3-yl)-5-(1-methyl-1H-1,2,4-triazol-5-yl)-3H-imidazo[4,5-b]pyridin-3-yl)benzyl)piperidin-4-yl)amino)pyrimidine-2-carbonitrile]
10 | < 15 | Cc1cnn(-c2ccc3nc(-c4cccnc4N)n(-c4ccc(CN5CCC(Nc6ccnc(C#N)n6)CC5)cc4)c3n2)n1 [Example 568, 4-((1-(4-(2-(2-Aminopyridin-3-yl)-5-(4-methyl-2H-1,2,3-triazol-2-yl)-3H-imidazo[4,5-b]pyridin-3-yl)benzyl)piperidin-4-yl)amino)pyrimidine-2-carbonitrile]
